Patent US20250129027A1 (APOGEE PHARMACEUTICALS, INC., priority 2023, published 2025)

Experiments:
human recombinant FAAH = human recombinant FAAH (Homo sapiens (Human), UniProt O00519); assay: In vitro inhibition of FAAH activity (fluorescent inhibitor screening kit, AMC arachidonoyl amide); assay type: biochemical; details: human recombinant FAAH; read-out: Inhibition on FAAH activity (IC50)
How it was run: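 Fluorogenic kit assay: AMC arachidonoyl amide is cleaved by human recombinant FAAH, read at 340-360/450-465 nm. Percent inhibition versus non-treated control; IC50 values derived from multiple compound concentrations where tested.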

human recombinant MAGL = human recombinant MAGL (Homo sapiens (Human), UniProt Q99685); assay: In vitro inhibition of MAGL activity (inhibitor screening kit, 4-nitrophenylacetate); assay type: biochemical; details: human recombinant MAGL
How it was run: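 Colorimetric kit assay: recombinant human MAGL hydrolyses 4-nitrophenylacetate to 4-nitrophenol, read by absorbance at 405-412 nm. Inhibition given as percentage of signal in treated versus untreated MAGL control.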

human recombinant MAGL, sequence (Q99685 whole entry): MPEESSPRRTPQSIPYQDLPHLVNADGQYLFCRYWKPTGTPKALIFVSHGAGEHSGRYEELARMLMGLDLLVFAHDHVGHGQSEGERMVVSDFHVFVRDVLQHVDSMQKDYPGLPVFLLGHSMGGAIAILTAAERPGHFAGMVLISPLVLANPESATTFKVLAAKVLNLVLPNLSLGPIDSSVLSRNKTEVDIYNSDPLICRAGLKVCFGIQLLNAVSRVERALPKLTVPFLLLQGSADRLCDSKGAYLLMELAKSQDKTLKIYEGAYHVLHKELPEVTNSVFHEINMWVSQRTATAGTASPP
human recombinant FAAH, sequence (O00519 whole entry): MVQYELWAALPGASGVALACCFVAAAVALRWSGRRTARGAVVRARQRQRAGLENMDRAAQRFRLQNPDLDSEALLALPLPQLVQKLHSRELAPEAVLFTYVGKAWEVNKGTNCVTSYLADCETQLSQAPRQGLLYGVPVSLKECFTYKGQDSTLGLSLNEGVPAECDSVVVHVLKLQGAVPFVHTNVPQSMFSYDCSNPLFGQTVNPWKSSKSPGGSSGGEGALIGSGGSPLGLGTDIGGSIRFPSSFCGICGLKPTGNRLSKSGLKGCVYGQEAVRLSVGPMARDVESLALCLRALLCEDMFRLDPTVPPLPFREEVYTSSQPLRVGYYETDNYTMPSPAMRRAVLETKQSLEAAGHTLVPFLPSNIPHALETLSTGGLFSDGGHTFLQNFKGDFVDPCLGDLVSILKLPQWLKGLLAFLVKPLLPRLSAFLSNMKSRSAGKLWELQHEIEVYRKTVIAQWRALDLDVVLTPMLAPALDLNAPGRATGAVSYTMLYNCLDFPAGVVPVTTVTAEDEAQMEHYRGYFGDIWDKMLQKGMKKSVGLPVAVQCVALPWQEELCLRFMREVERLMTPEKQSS

Row | Structure (SMILES) | IC50 (human recombinant FAAH) [µM] | IC50 (human recombinant MAGL) [µM]
1 | COc1cc(OC(=O)NCC2CCCCC2)cc(-c2cncc(-c3nnco3)c2)c1 [Example 175, 3-(5-(1,3,4-oxadiazol-2-yl)pyridin-3-yl)-5-methoxyphenyl (cyclohexylmethyl)carbamate] | ~0.1 | > 10
2 | Cc1ccc(-c2cncc(-c3ncco3)c2)cc1OC(=O)NCc1ccccc1 [Example 94, 2-methyl-5-(5-(oxazol-2-yl)pyridin-3-yl)phenyl benzylcarbamate] | > 1 | > 1
3 | COc1ccc(OC(=O)NCC2CCCCC2)cc1-c1cncc(-c2ncn[nH]2)c1 [Example 233, 3-(5-(1H-1,2,4-triazol-5-yl)pyridin-3-yl)-4-methoxyphenyl (cyclohexylmethyl) carbamate] | 0.1 to 1 | ~10
4 | CCCCCCCCNC(=O)Oc1ccc(OC(F)(F)F)c(-c2cncc(-c3nnco3)c2)c1 [Example 199, 3-(5-(1,3,4-oxadiazol-2-yl)pyridin-3-yl)-4-(trifluoromethoxy)phenyl octylcarbamate] | 0.01 to 0.1 | 1 to 10
5 | CCCCCCCCNC(=O)Oc1ccc(OC)c(-c2cncc(-c3nncs3)c2)c1 [Example 213, 3-(5-(1,3,4-thiadiazol-2-yl)pyridin-3-yl)-4-methoxyphenyl octylcarbamate] | 0.001 to 0.01 | ~10
6 | COc1ccc(OC(=O)NCc2ccccc2)cc1-c1cncc(-c2ccno2)c1 [Example 111, 3-(5-(isoxazol-5-yl)pyridin-3-yl)-4-methoxyphenyl benzylcarbamate] | 0.1 to 1 | > 10
7 | O=C(NCc1ccccc1)Oc1ccc(O)c(-c2cncc(-c3nnn[nH]3)c2)c1 [Example 246, 3-(5-(1H-tetrazol-5-yl)pyridin-3-yl)-4-hydroxyphenyl benzylcarbamate] | > 1 | > 10
8 | O=C(NC1CCCC1)Oc1cccc(-c2cncc(-c3nnco3)c2)c1 [Example 138, 3-(5-(1,3,4-oxadiazol-2-yl)pyridin-3-yl)phenyl cyclopentylcarbamate] | 0.01 to 0.1 | > 50
9 | COc1cc(OC(=O)NC2CCCCC2)cc(-c2cncc(-c3nnco3)c2)c1 [Example 178, 3-(5-(1,3,4-oxadiazol-2-yl)pyridin-3-yl)-5-methoxyphenyl cyclohexylcarbamate] | ~0.1 | > 10
10 | O=C(Oc1cccc(-c2cncc(-c3nnco3)c2)c1)N1CCCCCC1 [Example 145, 3-(5-(1,3,4-oxadiazol-2-yl)pyridin-3-yl)phenyl azepane-1-carboxylate] | > 1 | > 10
11 | COc1ccc(OC(=O)NC2CCCC2)cc1-c1cncc(-c2ncn[nH]2)c1 [Example 235, 3-(5-(1H-1,2,4-triazol-5-yl)pyridin-3-yl)-4-methoxyphenyl cyclopentylcarbamate] | 0.1 to 1 | > 10
12 | O=C(NC1CCCCC1)Oc1cccc(-c2cncc(-c3ccno3)c2)c1 [Example 107, 3-(5-(isoxazol-5-yl)pyridin-3-yl)phenyl cyclohexylcarbamate] | 0.01 to 0.1 | > 10
13 | O=C(NC1CCCC1)Oc1cccc(-c2cncc(-c3ncco3)c2)c1 [Example 75, 3-(5-(oxazol-2-yl)pyridin-3-yl)phenyl cyclopentylcarbamate] | 0.01 to 1 | > 10
14 | O=C(NC1CCCCCC1)Oc1cccc(-c2cncc(-c3nncs3)c2)c1 [Example 212, 3-(5-(1,3,4-thiadiazol-2-yl)pyridin-3-yl)phenyl cycloheptylcarbamate] | 0.01 to 0.1 | > 10
15 | CCCCCCCCNC(=O)Oc1cc(O)cc(-c2cncc(-c3nnco3)c2)c1 [Example 160, 3-(5-(1,3,4-oxadiazol-2-yl)pyridin-3-yl)-5-hydroxyphenyl octylcarbamate] | 0.001 to 0.01 | 1 to 10
16 | Cc1ccc(-c2cncc(-c3ncco3)c2)cc1OC(=O)NCC1CCCCC1 [Example 93, 2-methyl-5-(5-(oxazol-2-yl)pyridin-3-yl)phenyl (cyclohexylmethyl)carbamate] | > 1 | 1 to 10
17 | O=C(NC1CCCCC1)Oc1ccc(OC(F)(F)F)c(-c2cncc(-c3nnco3)c2)c1 [Example 200, 3-(5-(1,3,4-oxadiazol-2-yl)pyridin-3-yl)-4-(trifluoromethoxy)phenyl cyclohexylcarbamate] | 0.1 to 1 | > 10
18 | CCCCCCCCNC(=O)Oc1ccc(OC)c(-c2cncc(-c3ccco3)c2)c1 [Example 53, 3-(5-(furan-2-yl)pyridin-3-yl)-4-methoxyphenyl octylcarbamate] | 0.01 to 0.1 | ~10
19 | O=Cc1cncc(-c2cccc(OC(=O)NC3CCCC3)c2)c1 [Example 18, 3-(5-formylpyridin-3-yl)phenyl cyclopentylcarbamate] | 0.01 to 0.1 | > 10
20 | COc1cc(OC(=O)NC2CCCC2)cc(-c2cncc(-c3nnco3)c2)c1 [Example 177, 3-(5-(1,3,4-oxadiazol-2-yl)pyridin-3-yl)-5-methoxyphenyl cyclopentylcarbamate] | 0.1 to 1 | > 10
21 | CN(C(=O)Oc1cccc(-c2cncc(-c3nnco3)c2)c1)C1CCCCC1 [Example 142, 3-(5-(1,3,4-oxadiazol-2-yl)pyridin-3-yl)phenyl cyclohexyl(methyl)carbamate] | 1 to 10 | > 10
22 | CCOC(=O)c1cncc(-c2cccc(OC(=O)Nc3ccc(F)cc3)c2)c1 [Example 7, ethyl 5-(3-(((4-fluorophenyl)carbamoyl)oxy)phenyl)nicotinate] | > 1 | > 10
23 | CCCCCCCNC(=O)Oc1cccc(-c2cncc(C(=O)OCC)c2)c1 [Example 2, ethyl 5-(3-((heptylcarbamoyl)oxy)phenyl)nicotinate] | 0.01 to 0.1 | 1 to 10
24 | CC1CCC(NC(=O)Oc2ccc(OC(F)(F)F)c(-c3cncc(-c4nnco4)c3)c2)CC1 (stereo not drawn) [Example 201] | 0.1 to 1 | > 1
25 | CCCCCCCCNC(=O)Oc1cc(F)cc(-c2cncc(-c3nnco3)c2)c1 [Example 195, 3-(5-(1,3,4-oxadiazol-2-yl)pyridin-3-yl)-5-fluorophenyl octylcarbamate] | 0.001 to 0.01 | ~1
26 | COc1ccc(OC(=O)NC2CCCCC2)cc1-c1cncc(-c2ccc[nH]2)c1 [Example 45, 3-(5-(1H-pyrrol-2-yl)pyridin-3-yl)-4-methoxyphenyl cyclohexylcarbamate] | > 1 | > 10
27 | O=C(NC1CCCCC1)Oc1cccc(-c2cncc(-c3nncs3)c2)c1 [Example 211, 3-(5-(1,3,4-thiadiazol-2-yl)pyridin-3-yl)phenyl cyclohexylcarbamate] | > 1 | > 10
28 | O=C(NCC1CCCCC1)Oc1cccc(-c2cc(-c3nnco3)ccn2)c1 [Example 257, 3-(4-(1,3,4-oxadiazol-2-yl)pyridin-2-yl)phenyl (cyclohexylmethyl)carbamate] | 0.01 to 0.1 | > 10
29 | O=C(NC1CCCCC1)Oc1ccc(O)c(-c2cncc(-c3ncn[nH]3)c2)c1 [Example 230, 3-(5-(1H-1,2,4-triazol-5-yl)pyridin-3-yl)-4-hydroxyphenyl cyclohexyl carbamate] | 0.1 to 1 | > 10
30 | COc1ccc(OC(=O)NC2CCCCCC2)cc1-c1cncc(-c2nncs2)c1 [Example 218, 3-(5-(1,3,4-thiadiazol-2-yl)pyridin-3-yl)-4-methoxyphenyl cycloheptylcarbamate] | 0.01 to 0.1 | > 10
